# Laboratory results reported in patent US9029337B2, “Modulation of factor 7 expression” (Isis Pharmaceuticals, Inc., priority 2007, dated 2015).
# Strand notation (5' to 3'): a small letter for the sugar, then the base; units joined by * are phosphorothioate-linked, units joined directly phosphodiester-linked; [ ] holds rarer units or linkages, { } end groups; capitals alone tell only the bases. e = 2'-O-(2-methoxyethyl) (MOE); [5mC] = 5-methylcytosine; d = 2'-deoxy (DNA)
# Key:
# Type in all cases: cell-based
# human Factor 7 mRNA [1] = test: Antisense inhibition of human Factor 7 mRNA in HepB3 cells, 50 nM antisense oligonucleotide, lipofectin; conditions: for % Inhibition: Table 13 (microwalk), 50 nM, lipofectin, approximately 24 hours
# Outline: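 Percent inhibition, untreated cells as reference: derived from RNA collected about 24 hours post-transfection of 4,000-cell wells, with the human RTS 2927 primer probe set and adjustment for total RNA content (RIBOGREEN®).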
# human Factor 7 mRNA [2] = test: Dose-dependent antisense inhibition of human Factor 7 in HepB3 cells, lipofectin; conditions: HepB3 cells, approx. 16 hours (Table 14)
# Outline: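 HepB3 cells (4,000/well) lipofectin-transfected with antisense oligonucleotide at 3.125 or 6.25 up to 100 nM for ~16 h. Factor 7 mRNA measured by real-time RT-PCR with primer probe set RTS 2927, adjusted to RIBOGREEN total RNA; expressed as percent inhibition versus untreated control cells.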
# human Factor 7 mRNA [3] = test: Dose-dependent antisense inhibition of human Factor 7 in HepB3 cells, electroporation
# Method: (§1) The gapmers were also transfected via electroporation and their dose-dependent inhibition of human Factor 7 mRNA was measured. Cells were plated at a density of 20,000 cells per well and transfected via electroporation with 3.125 μM, 6.25 μM, 12.5 μM, 25 μM, 50 μM, and 100 μM concentrations of antisense oligonucleotide, as specified in Table 15. After a treatment period of approximately 16 hours, RNA was isolated from the cells and Factor 7 mRNA levels were measured by quantitative real-time PCR. Human Factor 7 primer probe set RTS 2927 was used to measure mRNA levels. Factor 7 mRNA levels were adjusted according to total RNA content, as measured by RIBOGREEN®. Results are presented as percent inhibition of Factor 7, relative to untreated control cells.
# as §1, with “Cells were” for “The gapmers were also transfected via electroporation and their dose-dependent inhibition of human Factor 7 mRNA was measured. Cells were”, “in […]. After a” for “in Table 15. After a”, “cells and human Factor 7” for “cells and Factor 7”
# [4] = 3.125 μM, approx. 16 hours (Table 15, Example 7)
# [5] = 3.125 μM, approx. 16 hours (Table 16, Example 8 confirmation)
# [6] = 6.25 μM, approx. 16 hours (Table 15, Example 7)
# [7] = 6.25 μM, approx. 16 hours (Table 16, Example 8 confirmation)
# [8] = 12.5 μM, approx. 16 hours (Table 15, Example 7)
# [9] = 12.5 μM, approx. 16 hours (Table 16, Example 8 confirmation)
# [10] = 25 μM, approx. 16 hours (Table 15, Example 7)
# [11] = 25 μM, approx. 16 hours (Table 16, Example 8 confirmation)
# [12] = 50 μM, approx. 16 hours (Table 15, Example 7)
# [13] = 50 μM, approx. 16 hours (Table 16, Example 8 confirmation)
# [14] = 100 μM, approx. 16 hours (Table 15, Example 7)
# [15] = 100 μM, approx. 16 hours (Table 16, Example 8 confirmation)
Substance,"percent inhibition of Factor 7 mRNA, relative to untreated control cells (human Factor 7 mRNA [2]; 3.125 nM) [%]","percent inhibition of Factor 7 mRNA, relative to untreated control cells (human Factor 7 mRNA [2]; 12.5 nM) [%]","percent inhibition of Factor 7 mRNA, relative to untreated control cells (human Factor 7 mRNA [2]; 25 nM) [%]","percent inhibition of Factor 7 mRNA, relative to untreated control cells (human Factor 7 mRNA [2]; 50 nM) [%]","percent inhibition of Factor 7 mRNA, relative to untreated control cells (human Factor 7 mRNA [2]; 100 nM) [%]","percent inhibition of Factor 7 mRNA, relative to untreated control cells (human Factor 7 mRNA [2]) [%]","percent inhibition of Factor 7 mRNA, relative to untreated control cells (human Factor 7 mRNA [3]; [4]) [%]","percent inhibition of Factor 7 mRNA, relative to untreated control cells (human Factor 7 mRNA [3]; [5]) [%]","percent inhibition of Factor 7 mRNA, relative to untreated control cells (human Factor 7 mRNA [3]; [6]) [%]","percent inhibition of Factor 7 mRNA, relative to untreated control cells (human Factor 7 mRNA [3]; [7]) [%]","percent inhibition of Factor 7 mRNA, relative to untreated control cells (human Factor 7 mRNA [3]; [8]) [%]","percent inhibition of Factor 7 mRNA, relative to untreated control cells (human Factor 7 mRNA [3]; [9]) [%]","percent inhibition of Factor 7 mRNA, relative to untreated control cells (human Factor 7 mRNA [3]; [10]) [%]","percent inhibition of Factor 7 mRNA, relative to untreated control cells (human Factor 7 mRNA [3]; [11]) [%]","percent inhibition of Factor 7 mRNA, relative to untreated control cells (human Factor 7 mRNA [3]; [12]) [%]","percent inhibition of Factor 7 mRNA, relative to untreated control cells (human Factor 7 mRNA [3]; [13]) [%]","percent inhibition of Factor 7 mRNA, relative to untreated control cells (human Factor 7 mRNA [3]; [14]) [%]","percent inhibition of Factor 7 mRNA, relative to untreated control cells (human Factor 7 mRNA [3]; [15]) [%]",% Inhibition (human Factor 7 mRNA [1]) [%],also measured
422130 (antisense eG*e[5mC]*e[5mC]*eT*eG*dA*dG*dG*d[5mC]*d[5mC]*dA*dG*d[5mC]*dA*dG*eA*eT*e[5mC]*eA*e[5mC]) [compound 422130],4,34,59,77,85,15,28,14,29,24,59,61,61,68,73,82,86,88,,% Inhibition (human Factor 7 mRNA levels) (human Factor 7 mRNA [1]; oligonucleotides targeted to nucleobases 14707 to 14732 of SEQ ID NO: 1 (Table 11)): 79%
422229 (antisense eA*eT*dG*d[5mC]*dA*dT*dG*dG*dT*dG*dA*dT*dG*d[5mC]*dT*eT*e[5mC]*eT*eG*eA) [compound 422229],21,53,72,86,92,32,21,30,30,45,33,67,44,79,65,90,77,92,71,
422296 (antisense e[5mC]*e[5mC]*dG*dA*dG*dT*dT*d[5mC]*dT*dG*d[5mC]*dA*dG*dG*dA*eG*e[5mC]*eG*eG*e[5mC]) [compound 422296],21,39,67,78,82,27,62,47,40,44,56,70,56,78,82,80,84,82,,"% Inhibition of human Factor 7 mRNA levels (human Factor 7 mRNA [1]; gapmers targeted to nucleobases 4868 to 4899 of SEQ ID NO: 1, Table 8): 74%"
422252 (antisense e[5mC]*eG*d[5mC]*d[5mC]*dG*dG*d[5mC]*dT*d[5mC]*dT*dG*d[5mC]*dT*d[5mC]*dA*eT*e[5mC]*e[5mC]*e[5mC]*e[5mC]) [compound 422252],18,45,61,77,87,17,23,,12,,26,,38,,58,,80,,,% Inhibition (human Factor 7 mRNA levels) (human Factor 7 mRNA [1]; oligonucleotides targeted to nucleobases 13760 to 13789 of SEQ ID NO: 1 (Table 10)): 70%
422228 (antisense eT*eG*d[5mC]*dA*dT*dG*dG*dT*dG*dA*dT*dG*d[5mC]*dT*dT*e[5mC]*eT*eG*eA*eA) [compound 422228],17,43,60,78,90,25,18,,33,,40,,47,,71,,83,,73,
422152 (antisense eA*eT*eG*d[5mC]*dA*dT*dG*dG*dT*dG*dA*dT*dG*d[5mC]*dT*dT*d[5mC]*eT*eG*eA) [compound 422152],18,47,67,83,89,29,14,,22,,32,,44,,65,,76,,74,
